The source of these data is US20030143191A1, “Chemokine beta-1 fusion proteins” (priority 2001, published 2003).

The test system of one assay is HIV. The note with it: cited from earlier work.
The next assay deals with NF-KB. Briefly: NF-KB/SV40/SEAP reporter assay in Jurkat T-cells. To be noted: NF-KB/SV40/SEAP/Neo Jurkat T-cells; 0.1, 1, 10 ng; positive control. Type of assay: cell-based. The source says:
NF-KB (Nuclear Factor KB) is a transcription factor activated by a wide variety of agents including the inflammatory cytokines IL-1 and TNF, CD30 and CD40, lymphotoxin-alpha and lymphotoxin-beta, by exposure to LPS or thrombin, and by expression of certain viral gene products. As a transcription factor, NF-KB regulates the expression of genes involved in immune cell activation, control of apoptosis (NF-KB appears to shield cells from apoptosis), B and T-cell development, anti-viral and antimicrobial responses, and multiple stress responses.
Due to its central role and ability to respond to a range of stimuli, reporter constructs utilizing the NF-KB promoter element are used to screen the fusion protein. Activators or inhibitors of NF-KB would be useful in treating, preventing, and/or diagnosing diseases. For example, inhibitors of NF-KB could be used to treat those diseases related to the acute or chronic activation of NF-KB, such as rheumatoid arthritis.
To construct a vector containing the NF-KB promoter element, a PCR based strategy is employed. The upstream primer contains four tandem copies of the NF-KB binding site ([…]) (SEQ ID NO: 48), 18 bp of sequence complementary to the 5′ end of the SV40 early promoter sequence, and is flanked with an XhoI site: […]
For orientation: A reporter such as luciferase makes a cellular process visible.

Turning to `CC[C@H]1C(=O)Nc2ccc(F)cc2N1C(=O)OC(C)C` [GW-420867×], the “activity relative to HBY097” value in the assay with HIV was 25 fold. In the case of `C[C@H](Sc1nc(N)cc(Cl)n1)c1cc2ccoc2cn1` [PNU-142721], the “activity relative to its predecessor delavirdine” value in the assay with HIV is 20- to 50 fold. With `Nc1nc(=O)n([C@@H]2CS[C@H](CO)O2)cc1F` [emtricitabine], in the assay on HIV (in vitro), the “activity in vitro relative to lamivudine (3TC)” value is given as 3- to 10 fold.

For the compound TNF alpha, in the assay on NF-KB, the “activation (SEAP reporter activity)” value was 5-10 fold.
